The NIST ThermoML archive (doi:10.1021/je600554h)
Numbers after ± are expanded uncertainties.

Conditions: 101.33 kPa, Liquid; for viscosity: Capillary tube (Ostwald / Ubbelohde) method

Q: For `COC(C)(C)C` [2-methoxy-2-methylpropane], which mass density (273.15 K) is on record?
A: 761.34 ± 0.25 kg/m3

Q: What about the viscosity (273.15 K) of the same molecule?
A: 0.443 ± 0.009 mPa·s

Q: What about the mass density (278.15 K) of the same molecule?
A: 756.14 ± 0.26 kg/m3

Q: And the viscosity (278.15 K)?
A: 0.417 ± 0.009 mPa·s

Q: And the mass density (283.15 K)?
A: 751.02 ± 0.26 kg/m3

Q: And the viscosity (283.15 K)?
A: 0.392 ± 0.008 mPa·s

Q: What about the mass density (288.15 K) of the same molecule?
A: 745.85 ± 0.27 kg/m3

Q: What about the viscosity (288.15 K) of the same molecule?
A: 0.37 ± 0.008 mPa·s

Q: And the mass density (293.15 K)?
A: 740.65 ± 0.27 kg/m3

Q: What about the mass density (298.15 K) of the same molecule?
A: 735.4 ± 0.27 kg/m3

Q: And the mass density (303.15 K)?
A: 730.1 ± 0.28 kg/m3

Q: What about the mass density (308.15 K) of the same molecule?
A: 724.82 ± 0.28 kg/m3

Q: What about the mass density (313.15 K) of the same molecule?
A: 719.42 ± 0.29 kg/m3

Q: What about the mass density (318.15 K) of the same molecule?
A: 713.96 ± 0.29 kg/m3

Q: Which mass density (273.15 K) does the source give for `CCCCCCC` [heptane] here?
A: 700.75 ± 0.62 kg/m3

Q: What about the viscosity (273.15 K) of the same molecule?
A: 0.526 ± 0.009 mPa·s

Q: What about the mass density (278.15 K) of the same molecule?
A: 696.59 ± 0.62 kg/m3

Q: And the viscosity (278.15 K)?
A: 0.495 ± 0.009 mPa·s

Q: What about the mass density (283.15 K) of the same molecule?
A: 692.42 ± 0.63 kg/m3

Q: What about the viscosity (283.15 K) of the same molecule?
A: 0.465 ± 0.009 mPa·s

Q: What about the mass density (288.15 K) of the same molecule?
A: 688.22 ± 0.64 kg/m3

Q: And the viscosity (288.15 K)?
A: 0.438 ± 0.009 mPa·s

Q: What about the mass density (293.15 K) of the same molecule?
A: 684 ± 0.64 kg/m3

Q: What about the viscosity (293.15 K) of the same molecule?
A: 0.415 ± 0.009 mPa·s

Q: And the mass density (298.15 K)?
A: 679.75 ± 0.65 kg/m3

Q: And the viscosity (298.15 K)?
A: 0.392 ± 0.009 mPa·s

Q: And the mass density (303.15 K)?
A: 675.48 ± 0.66 kg/m3

Q: What about the viscosity (303.15 K) of the same molecule?
A: 0.372 ± 0.008 mPa·s

Q: What about the mass density (308.15 K) of the same molecule?
A: 671.19 ± 0.66 kg/m3

Q: What about the viscosity (308.15 K) of the same molecule?
A: 0.354 ± 0.008 mPa·s

Q: What about the mass density (313.15 K) of the same molecule?
A: 666.86 ± 0.67 kg/m3

Q: What about the viscosity (313.15 K) of the same molecule?
A: 0.336 ± 0.008 mPa·s

Q: What about the mass density (318.15 K) of the same molecule?
A: 662.5 ± 0.68 kg/m3

Q: And the mass density (323.15 K)?
A: 658.11 ± 0.68 kg/m3

Q: And the mass density (328.15 K)?
A: 653.68 ± 0.69 kg/m3

Q: What about the mass density (333.15 K) of the same molecule?
A: 649.22 ± 0.7 kg/m3

Q: And the mass density (338.15 K)?
A: 644.72 ± 0.71 kg/m3

Q: What about the mass density (343.15 K) of the same molecule?
A: 640.17 ± 0.71 kg/m3

Q: What about the mass density (348.15 K) of the same molecule?
A: 635.58 ± 0.72 kg/m3

Q: And the mass density (353.15 K)?
A: 630.41 ± 0.73 kg/m3

Q: What about the mass density (358.15 K) of the same molecule?
A: 626.34 ± 0.74 kg/m3

Q: Which results are given for `CCCCCCCC` [octane]?
A: mass density (273.15 K): 718.58 ± 0.6 kg/m3; viscosity (273.15 K): 0.718 ± 0.009 mPa·s; mass density (278.15 K): 714.61 ± 0.61 kg/m3; viscosity (278.15 K): 0.671 ± 0.009 mPa·s; mass density (283.15 K): 710.62 ± 0.62 kg/m3; viscosity (283.15 K): 0.623 ± 0.009 mPa·s; mass density (288.15 K): 706.62 ± 0.62 kg/m3; viscosity (288.15 K): 0.584 ± 0.009 mPa·s; mass density (293.15 K): 702.61 ± 0.63 kg/m3; viscosity (293.15 K): 0.545 ± 0.009 mPa·s; mass density (298.15 K): 698.57 ± 0.64 kg/m3; viscosity (298.15 K): 0.514 ± 0.009 mPa·s; mass density (303.15 K): 694.52 ± 0.64 kg/m3; viscosity (303.15 K): 0.486 ± 0.009 mPa·s; mass density (308.15 K): 690.44 ± 0.65 kg/m3; viscosity (308.15 K): 0.459 ± 0.009 mPa·s; mass density (313.15 K): 686.35 ± 0.65 kg/m3; viscosity (313.15 K): 0.434 ± 0.009 mPa·s; mass density (318.15 K): 682.23 ± 0.66 kg/m3; viscosity (318.15 K): 0.415 ± 0.009 mPa·s; mass density (323.15 K): 678.09 ± 0.67 kg/m3; viscosity (323.15 K): 0.394 ± 0.009 mPa·s; mass density (328.15 K): 673.92 ± 0.67 kg/m3; viscosity (328.15 K): 0.375 ± 0.009 mPa·s; mass density (333.15 K): 669.71 ± 0.68 kg/m3; viscosity (333.15 K): 0.357 ± 0.008 mPa·s; mass density (338.15 K): 665.51 ± 0.69 kg/m3; mass density (343.15 K): 661.24 ± 0.69 kg/m3; mass density (348.15 K): 656.96 ± 0.7 kg/m3; mass density (353.15 K): 652.63 ± 0.71 kg/m3; mass density (358.15 K): 648.26 ± 0.72 kg/m3; mass density (363.15 K): 643.85 ± 0.72 kg/m3
